# Measured values taken from BindingDB's records for doi:10.7270/Q25719FH (Srmlsc, 2007).
# Target: Multidrug resistance-associated protein 1 (Homo sapiens, UniProt P33527)
# Assay: doxorubicin EC50 increase in MRP-1 cells, dose response, cell-based, doxorubicin EC50 shift (AID 844)
# Chain of Multidrug resistance-associated protein 1 (P33527 whole entry): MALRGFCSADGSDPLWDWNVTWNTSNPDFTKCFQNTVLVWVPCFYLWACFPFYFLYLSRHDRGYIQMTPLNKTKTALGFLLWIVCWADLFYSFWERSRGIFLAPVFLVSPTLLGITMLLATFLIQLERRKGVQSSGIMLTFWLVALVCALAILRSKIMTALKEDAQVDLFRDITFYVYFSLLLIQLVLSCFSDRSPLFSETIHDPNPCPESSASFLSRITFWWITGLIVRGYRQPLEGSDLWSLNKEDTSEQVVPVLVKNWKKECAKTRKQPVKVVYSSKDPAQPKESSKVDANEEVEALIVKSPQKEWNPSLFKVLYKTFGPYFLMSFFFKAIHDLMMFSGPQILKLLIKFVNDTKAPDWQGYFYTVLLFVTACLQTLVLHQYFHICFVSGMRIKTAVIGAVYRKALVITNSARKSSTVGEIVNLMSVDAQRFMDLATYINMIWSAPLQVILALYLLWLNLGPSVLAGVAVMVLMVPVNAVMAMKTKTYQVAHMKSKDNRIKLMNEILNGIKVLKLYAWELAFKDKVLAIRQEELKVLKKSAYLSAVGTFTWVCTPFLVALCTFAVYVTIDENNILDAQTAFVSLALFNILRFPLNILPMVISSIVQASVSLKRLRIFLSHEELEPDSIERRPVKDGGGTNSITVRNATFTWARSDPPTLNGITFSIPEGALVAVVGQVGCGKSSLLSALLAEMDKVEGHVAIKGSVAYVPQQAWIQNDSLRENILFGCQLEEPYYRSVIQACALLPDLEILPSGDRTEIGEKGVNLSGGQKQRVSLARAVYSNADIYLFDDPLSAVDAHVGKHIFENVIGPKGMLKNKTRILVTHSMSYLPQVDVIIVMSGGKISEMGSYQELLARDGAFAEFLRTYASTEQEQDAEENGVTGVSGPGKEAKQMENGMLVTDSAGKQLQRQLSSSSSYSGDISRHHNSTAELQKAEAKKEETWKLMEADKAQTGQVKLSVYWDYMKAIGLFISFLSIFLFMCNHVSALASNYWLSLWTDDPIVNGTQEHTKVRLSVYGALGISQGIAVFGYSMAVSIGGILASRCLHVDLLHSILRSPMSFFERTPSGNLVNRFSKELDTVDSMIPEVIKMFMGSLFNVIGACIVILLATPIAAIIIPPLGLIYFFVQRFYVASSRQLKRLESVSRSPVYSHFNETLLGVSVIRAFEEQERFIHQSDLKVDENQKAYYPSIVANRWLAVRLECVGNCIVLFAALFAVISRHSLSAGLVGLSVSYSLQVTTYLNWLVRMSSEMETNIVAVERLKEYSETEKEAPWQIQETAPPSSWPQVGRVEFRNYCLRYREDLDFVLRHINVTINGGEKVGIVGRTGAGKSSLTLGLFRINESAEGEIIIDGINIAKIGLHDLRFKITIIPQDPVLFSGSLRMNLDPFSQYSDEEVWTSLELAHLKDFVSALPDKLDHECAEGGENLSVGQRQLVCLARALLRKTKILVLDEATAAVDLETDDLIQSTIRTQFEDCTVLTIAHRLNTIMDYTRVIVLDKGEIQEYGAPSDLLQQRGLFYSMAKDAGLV
row,SMILES,EC50
1,COC(=O)C1=C(C)N=C(C)C(C(=O)OC)C1c1ccccc1OCc1c(C)n[o+]n1[O-] (stereo unspecified),5.32 µM
2,O=c1[nH]c2ccccc2n1C1CCN(c2cc(O)n(-c3ccc(F)cc3)c2O)CC1,7.59 µM
3,CCOC(=O)C1C(C)=Nc2ncnn2C1c1cccnc1 (stereo unspecified),4.5 µM
4,COc1ccc(-n2c(O)cc(N3CCC(n4c(=O)[nH]c5ccccc54)CC3)c2O)cc1,5.64 µM
5,Cc1ccc(-n2[nH]c(C)c(C(c3ccccc3O)c3c(C)[nH]n(-c4ccc(C)cc4C)c3=O)c2=O)c(C)c1,3.81 µM
6,COc1ccc(Cc2nnc(N=NCc3ccc(O)cc3O)[nH]c2=O)cc1OC,0.836 µM
7,O=S(=O)(c1ccc(Cl)cc1Br)N1CCCCC1 [1-(2-bromanyl-4-chloranyl-phenyl)sulfonylpiperidine],5.42 µM
8,"Oc1cc(N2CCCN(c3cc(O)n(-c4ccc(F)cc4)c3O)CC2)c(O)n1-c1ccc(F)cc1 [1-(4-fluorophenyl)-3-[4-[1-(4-fluorophenyl)-2,5-bis(oxidanylidene)pyrrolidin-3-yl]-1,4-diazepan-1-yl]pyrrolidine-2,5-dione]",6.34 µM
9,"COc1ccc(-n2c(O)cc(N3CCC(O)(c4cccc(C(F)(F)F)c4)CC3)c2O)cc1 [1-(4-methoxyphenyl)-3-[4-oxidanyl-4-[3-(trifluoromethyl)phenyl]piperidin-1-yl]pyrrolidine-2,5-dione]",4.82 µM
10,CC1CCN(S(=O)(=O)c2ccc(Br)s2)CC1 [1-(5-bromanylthiophen-2-yl)sulfonyl-4-methyl-piperidine],3.52 µM
11,"C=CCN(C(=O)Nc1ccc(Cl)cc1)c1cc(O)n(-c2ccc(OC)cc2)c1O [1-allyl-3-(4-chlorophenyl)-1-[2,5-diketo-1-(4-methoxyphenyl)pyrrolidin-3-yl]urea]",4.85 µM
12,"COC1(OC)C(O)CCC(N=O)C1N=O (stereo unspecified) [2,2-dimethoxy-3-nitroso-4-(oxidanylamino)cyclohex-3-en-1-ol]",4.16 µM
13,"N#CC1C(=N)SC(=N)C(C#N)C1c1cccc(O)c1 (stereo unspecified) [2,6-Diamino-4-(3-hydroxy-phenyl)-4H-thiopyran-3,5-dicarbonitrile]",5.78 µM
14,"O=C1CCCC(=O)C1=NNc1ccc2c(c1)OCO2 [2-(1,3-benzodioxol-5-ylhydrazinylidene)cyclohexane-1,3-dione]",6.29 µM
15,"Cc1cccc(NC(=O)Cc2sc(=O)n(-c3ccccc3)c2O)c1 [2-(2,4-Dioxo-3-phenyl-thiazolidin-5-yl)-N-m-tolyl-acetamide]",5.15 µM
16,"Cc1ccccc1NC(=O)Cc1sc(=O)n(-c2ccccc2)c1O [2-(2,4-Dioxo-3-phenyl-thiazolidin-5-yl)-N-o-tolyl-acetamide]",7.29 µM
17,"O=C(Cc1sc(=O)n(-c2ccccc2)c1O)Nc1ccccc1 [2-(2,4-diketo-3-phenyl-thiazolidin-5-yl)-N-phenyl-acetamide]",6.42 µM
18,"COc1ccc(N2C(=S)C(C#N)C(=O)NC2c2ccco2)cc1 (stereo unspecified) [2-(2-furanyl)-4-mercapto-3-(4-methoxyphenyl)-6-oxo-1,2-dihydropyrimidine-5-carbonitrile]",2.2 µM
19,"Oc1nc(Nc2ccc(Cl)cc2)sc1Cc1cccc(Cl)c1Cl [2-(4-chloroanilino)-5-(2,3-dichlorobenzyl)-2-thiazolin-4-one]",6.41 µM
20,"Oc1nc(Nc2ccc(Cl)cc2)sc1Cc1cc(Cl)ccc1Cl [2-(4-chloroanilino)-5-(2,5-dichlorobenzyl)-2-thiazolin-4-one]",5.86 µM
21,"Cc1cc(N=NCc2ccccc2Cl)nc(NCc2ccccc2)n1 [2-N-benzyl-4-N-[(2-chlorophenyl)methylideneamino]-6-methylpyrimidine-2,4-diamine]",1.08 µM
22,"COc1ccc(-n2c(O)c(CC(=O)Nc3ccc(F)cc3)n(CCc3cccs3)c2=O)cc1 [2-[2,5-diketo-1-(4-methoxyphenyl)-3-[2-(2-thienyl)ethyl]imidazolidin-4-yl]-N-(4-fluorophenyl)acetamide]",4.38 µM
23,N#CC(C#N)N=Nc1ccc(S(=O)(=O)N2CCCC2)cc1 [2-[(4-pyrrolidin-1-ylsulfonylphenyl)hydrazinylidene]propanedinitrile],5.88 µM
24,O=C1C=CC([N+](=O)[O-])=CC1/C=N/n1cnc2ccccc21 (stereo unspecified) [2-[(E)-Benzoimidazol-1-yliminomethyl]-4-nitro-phenol],3.61 µM
25,"Oc1nc(Nc2ccccc2)sc1Cc1cccc(Cl)c1Cl [2-anilino-5-(2,3-dichlorobenzyl)-2-thiazolin-4-one]",6.54 µM

# Other lines, results leading:
row,EC50,SMILES
1,3.44 µM,O=[N+]([O-])c1ccc(N=NCc2ccccc2)c(F)c1 [2-fluoranyl-4-nitro-N-[(phenylmethylidene)amino]aniline]
2,5.63 µM,C=C(C)C(=O)Nc1cc(=O)n(-c2ccccc2)[nH]1 [2-methyl-N-(5-oxo-1-phenyl-4H-pyrazol-3-yl)prop-2-enamide]
3,3.81 µM,"COc1ccccc1C1C(C(=O)c2sc(C)nc2C)C(=O)C(=O)N1CCN1CCOCC1 (stereo unspecified) [3-(2,4-dimethyl-1,3-thiazole-5-carbonyl)-4-hydroxy-2-(2-methoxyphenyl)-1-(2-morpholin-4-ylethyl)-2H-pyrrol-5-one]"
4,1.1 µM,"CCOC(=O)C1C(C)=Nc2sc(C(=O)c3ccc(OC)cc3)c(N)c2C1c1ccc(C(=O)OC)cc1 (stereo unspecified) [3-Amino-2-(4-methoxy-benzoyl)-4-(4-methoxycarbonyl-phenyl)-6-methyl-4,7-dihydro-thieno[2,3-b]pyridine-5-carboxylic acid ethyl ester]"
5,1.96 µM,"CCOC(=O)C1C(C)=Nc2sc(C(=O)c3ccc(C)cc3)c(N)c2C1c1ccc(C(=O)OC)cc1 (stereo unspecified) [3-Amino-4-(4-methoxycarbonyl-phenyl)-6-methyl-2-(4-methyl-benzoyl)-4,7-dihydro-thieno[2,3-b]pyridine-5-carboxylic acid ethyl ester]"
6,6.38 µM,"Oc1cc(N2CCN(c3nc4ccccc4s3)CC2)c(O)n1-c1ccc(F)cc1 [3-[4-(1,3-benzothiazol-2-yl)-1-piperazinyl]-1-(4-fluorophenyl)pyrrolidine-2,5-dione]"
7,7.36 µM,"Oc1cc(N2CCC(c3nc4ccccc4o3)CC2)c(O)n1-c1cc(Cl)cc(Cl)c1 [3-[4-(1,3-benzoxazol-2-yl)-1-piperidinyl]-1-(3,5-dichlorophenyl)-2,5-pyrrolidinedione]"
8,7.39 µM,"Oc1cc(N2CCC(O)(c3ccc(Br)cc3)CC2)c(O)n1-c1ccc(Cl)cc1 [3-[4-(4-bromophenyl)-4-hydroxy-1-piperidinyl]-1-(4-chlorophenyl)-2,5-pyrrolidinedione]"
9,7.97 µM,"O=C(O)c1cccc(-n2c(O)c3c(c2O)CC(Cl)=CC3)c1 [3-[5-chloranyl-1,3-bis(oxidanylidene)-3a,4,7,7a-tetrahydroisoindol-2-yl]benzoic acid]"
10,7.08 µM,"COc1cccc(C=Nn2c(O)csc2=S)c1O [3-[[(E)-(5-methoxy-6-oxidanylidene-cyclohexa-2,4-dien-1-ylidene)methyl]amino]-2-sulfanylidene-1,3-thiazolidin-4-one]"
11,6.85 µM,"CCSC(C)CC1Cc2onc(CC)c2C(N=O)C1 (stereo unspecified) [3-ethyl-6-[2-(ethylthio)propyl]-6,7-dihydro-5H-1,2-benzoxazol-4-one oxime]"
12,7.54 µM,O=CC(=NNc1ccccc1)C(=O)c1ccncc1 [3-keto-2-(phenylhydrazono)-3-(4-pyridyl)propionaldehyde]
13,7.02 µM,"Cc1cc(=O)oc2c1ccc1oc(C(N=O)c3ccccc3)c(C)c12 (stereo unspecified) [4,9-dimethyl-8-(N-oxidanyl-C-phenyl-carbonimidoyl)furo[2,3-h]chromen-2-one]"
14,1.9 µM,"COc1ccc(CN=Nc2nc(-c3ccc(Cl)cc3)cc(C(F)(F)F)n2)cc1OC [4-(4-chlorophenyl)-N-[(3,4-dimethoxyphenyl)methylideneamino]-6-(trifluoromethyl)-2-pyrimidinamine]"
15,8.43 µM,"O=C(CCCCl)Nc1cc(=O)n(-c2ccccc2)[nH]1 [4-Chloro-N-(5-oxo-1-phenyl-4,5-dihydro-1H-pyrazol-3-yl)-butyramide]"
16,3.7 µM,"CCN(CC)S(=O)(=O)c1ccc(N=NC(C#N)C#N)cc1 [4-[2-(dicyanomethylene)hydrazino]-N,N-diethylbenzenesulfonamide]"
17,7.07 µM,"O=C(O)c1ccc(N=NCc2ccc(F)c(F)c2)cc1 [4-[2-[(3,4-difluorophenyl)methylidene]hydrazinyl]benzoic acid;sulfuric acid]"
18,7 µM,"N#Cc1ccc(-n2c(O)c3[nH][nH]c(C(=O)c4ccc5ccccc5n4)c-3c2=O)cc1 [4-[(3aS,6aS)-4,6-dioxo-3-[oxo(2-quinolinyl)methyl]-3a,6a-dihydro-1H-pyrrolo[3,4-c]pyrazol-5-yl]benzonitrile]"
19,6.22 µM,Cc1cccc(Cc2sc(Nc3ccccn3)nc2O)c1 [5-(3-Methyl-benzyl)-2-(pyridin-2-ylimino)-thiazolidin-4-one]
20,5.6 µM,O=C1CC(=O)CC(c2ccc(Cl)cc2)C1 [5-(4-chlorophenyl)-3-hydroxy-1-cyclohex-2-enone]
21,2.87 µM,"CC1=CC([N+](=O)[O-])=CC(C=NNC(=O)c2cc(C)n[nH]2)C1=O (stereo unspecified) [5-methyl-N'-[(E)-(5-methyl-3-nitro-6-oxo-1-cyclohexa-2,4-dienylidene)methyl]-1H-pyrazole-3-carbohydrazide]"
22,3.1 µM,COc1ccc(CN=Nc2cc(OC)ncn2)cc1 [6-methoxy-N-[(4-methoxyphenyl)methylideneamino]-4-pyrimidinamine]
23,4.7 µM,C=CCc1c(C)nc(-c2ccccc2)nc1N=NCc1ccccc1 [6-methyl-2-phenyl-N-[(phenylmethylene)amino]-5-prop-2-enyl-4-pyrimidinamine]
24,7.87 µM,"O=C1Nc2ccccc2[C@@]12N[C@@H](Cc1ccc(O)cc1)c1c2c(O)n(-c2ccc(F)cc2)c1O [(1S,3R,3aR,6aS)-5-(4-fluorophenyl)-1-(4-hydroxybenzyl)spiro[1,2,3a,6a-tetrahydropyrrolo[3,4-c]pyrrole-3,3'-indoline]-2',4,6-trione]"
25,0.457 µM,O=C1c2ccccc2SC1/C=N/c1cc([N+](=O)[O-])ccc1O (stereo unspecified) [(2Z)-2-[[(5-nitro-2-oxidanyl-phenyl)amino]methylidene]-1-benzothiophen-3-one]
26,3.14 µM,"CCOc1ccc2c(c1)C(N=O)C(=O)N2C (stereo unspecified) [(3E)-5-ethoxy-1-methyl-1H-indole-2,3-dione 3-oxime]"
